Among the data in ChEMBL document CHEMBL3507680, “University of Dundee, Gates Library screen for HepG2 cell viability” are cytotoxicity values, retold here.

This series can be described thus: Human HepG2 cell viability assay in 384 well format. The series is classed as toxicity, cell-based. Further details: dose 125 nL, time 70.5 hour; cytotoxicity at 70.5 h: concentration not given beside the values. As to conditions: HepG2 cells, read-out: Inhibition.
For the compound `O=C(CN1CCCNC1=O)Nc1ccccc1SC(F)(F)F`, the cytotoxicity at 70.5 h amounted to 21.5%.
With `CC(=O)N[C@@H]1CN(Cc2ccccc2-n2cccn2)C[C@H]1C(C)C` the figure was -4.08%; with `COCCN(Cc1sccc1C)C(=O)COc1ccccc1O`, -4.7%.
In the case of `CN(Cc1ccc(-n2ccnc2)cc1)CC1CCCN1c1cccnn1` (centres undefined), the cytotoxicity at 70.5 h was 23%.
To `Cn1nc(-c2cccc(Cl)c2)c(Br)c1C(=O)O` belongs -16.9%.
To `Cc1nnc(N2CC[C@@H](OCC3CC3)[C@@H](Cc3ccccc3)C2)s1` belongs -7.86%.
To `CCNC(=O)CN1CCN(Cc2nc3c(F)cccc3n2CC)CC1` belongs 0.0175%; to `Cc1nc(C(=O)N2CCCC(n3cncn3)C2)cs1` (centres undefined), -3.83%.
With `CC(=O)N1CC(=O)N(c2cnn(C)c2)CC12CCN(CC1CC1)C2` (centres undefined), the cytotoxicity at 70.5 h is 1.31%.
As for `O=C(c1cnnn1-c1ccccc1)N1CCCC(c2ccn[nH]2)C1` (centres undefined), the cytotoxicity at 70.5 h was found to be 48.8%.
With `O=C(CN1CCOC(Cn2cccn2)C1)NC(C1CC1)C1CC1` (centres undefined) the figure was -6.99%.
With `CCC1=N[C@@]2(CC[C@@H]3CN(C(=O)NCC(C)C)C[C@@H]32)C(=O)N1CCOC` the figure was -2.9%; with `O=C1NC2(CCCN(C(=O)CCn3cncn3)C2)Oc2ccccc21` (centres undefined), -4.04%; with `Cc1ccc(C)c(C(NC(=O)C(C)(C)C)c2cccnc2)c1` (centres undefined), -4.24%.
As for `O=C(c1cn2cc(Cl)cnc2n1)N1CCOCC(O)(CN2CCCC2)C1` (centres undefined), the cytotoxicity at 70.5 h was -1.97%.
With `CCCN(C)C(=O)c1ccc2c(c1)[nH]c(=O)n2CCOCC` the figure was 13.7%.
Turning to `CNCc1ccc([C@@H]2CN(C(C)=O)C[C@H]2C(N)=O)cc1`, the cytotoxicity at 70.5 h was -7.99%.
With `CSCc1cccc(NC(=O)N2CCC(N3CC=CC3)C2)c1` (centres undefined) the figure was 35%; with `CCOC(=O)CN1C[C@@H]2OCCN(c3ncc(F)cn3)[C@@H]2C1`, 21.2%; with `CSc1ccc(C(=O)N(c2ccc(F)cn2)C2CCOCC2)o1`, 30.2%.
With `CC(NCc1nnc2n1CCCC2)c1nc(-c2cccs2)no1` (centres undefined) the figure was 2.78%.
Turning to `COC(=O)c1cccc(C(=O)N2CCN(c3ccc(Cl)cc3)CC2)n1`, the cytotoxicity at 70.5 h was -6.13%.
To `OC1CCN(CCCNc2ncccn2)CC1` belongs 3.78%; to `CC(=O)N1CCN(C(=O)c2[nH]nnc2Nc2ccccc2F)CC1`, 8.05%.
To `Cc1nccn1-c1cc(CNC(=O)CCNC(=O)OC(C)(C)C)ccn1` belongs -7.58%.
With `CCN(CC)c1ccc(C(=O)N2CCC(c3nc(C)no3)CC2)cn1` the figure was -7.84%; with `CCc1ncc(C(=O)NCCN(C)S(C)(=O)=O)cn1`, 17.2%; with `CC(C)(C)c1ncc(C(=O)NCCNC(=O)Cc2ccccc2)s1`, -5.68%.
Turning to `CCNC(=O)NCc1ccc(CN2CCCC(C)C2)cc1` (centres undefined), the cytotoxicity at 70.5 h is -0.573%.
To `c1coc(CN2CC[C@@H]3O[C@@H](COCc4ccncc4)CC[C@@H]32)c1` belongs 3.57%; to `CC(C)CN1C(=O)C2(CCN(CC3CCOCC3)C2)c2ccccc21` (centres undefined), -3.07%; to `CNC(=O)NC(=O)C(C)Nc1ccccc1OCCOC` (centres undefined), -10.8%.
To `Cn1nccc1C(=O)N1CCN(C(=O)C2CCC2)[C@@H]2CS(=O)(=O)C[C@@H]21` belongs -6.57%.
To `Cc1cccc(C2(CNC(=O)C(C)NC(N)=O)CCCC2)c1` (centres undefined) belongs 4.08%; to `Cc1noc(C2CCC3(CCN(C(=O)c4sccc4C)CC3)O2)n1` (centres undefined), -4%; to `CC1CCCN(Cc2csc(-c3ncccn3)n2)CC1` (centres undefined), 9.27%.
In the case of `O=C(CCSc1ccccc1F)N1CCN(c2cnccn2)CC1`, the cytotoxicity at 70.5 h stood at 11%.
With `O=C1NCCCc2[nH]c(-c3nc(C4CCCCC4)no3)nc21` the figure was 8.47%; with `CC(C)OCc1cccc(CNc2cnn(C)c(=O)c2Cl)c1`, 3.32%.
